# Laboratory results: patent publication US20250154144A1 (CHILDREN'S HOSPITAL MEDICAL CENTER, priority 2021, published 2025)
# Read-outs that look alike come from different tables or passages of the source.
# Legend:
# [1] = tested on: MOLM14(D835Y) cells; type: cell-based; conditions: for Excess HSA Score: 10 × 10
# [2] = biological target: T1, FLT3 K663Q (Homo sapiens, UniProt P36888, K663Q); test: DiscoverX KINOMEscan competition binding, FLT3 K663Q
# T1 construct: purchased DiscoverX (KINOMEscan)
# T1 sequence (P36888 27-993 K663Q): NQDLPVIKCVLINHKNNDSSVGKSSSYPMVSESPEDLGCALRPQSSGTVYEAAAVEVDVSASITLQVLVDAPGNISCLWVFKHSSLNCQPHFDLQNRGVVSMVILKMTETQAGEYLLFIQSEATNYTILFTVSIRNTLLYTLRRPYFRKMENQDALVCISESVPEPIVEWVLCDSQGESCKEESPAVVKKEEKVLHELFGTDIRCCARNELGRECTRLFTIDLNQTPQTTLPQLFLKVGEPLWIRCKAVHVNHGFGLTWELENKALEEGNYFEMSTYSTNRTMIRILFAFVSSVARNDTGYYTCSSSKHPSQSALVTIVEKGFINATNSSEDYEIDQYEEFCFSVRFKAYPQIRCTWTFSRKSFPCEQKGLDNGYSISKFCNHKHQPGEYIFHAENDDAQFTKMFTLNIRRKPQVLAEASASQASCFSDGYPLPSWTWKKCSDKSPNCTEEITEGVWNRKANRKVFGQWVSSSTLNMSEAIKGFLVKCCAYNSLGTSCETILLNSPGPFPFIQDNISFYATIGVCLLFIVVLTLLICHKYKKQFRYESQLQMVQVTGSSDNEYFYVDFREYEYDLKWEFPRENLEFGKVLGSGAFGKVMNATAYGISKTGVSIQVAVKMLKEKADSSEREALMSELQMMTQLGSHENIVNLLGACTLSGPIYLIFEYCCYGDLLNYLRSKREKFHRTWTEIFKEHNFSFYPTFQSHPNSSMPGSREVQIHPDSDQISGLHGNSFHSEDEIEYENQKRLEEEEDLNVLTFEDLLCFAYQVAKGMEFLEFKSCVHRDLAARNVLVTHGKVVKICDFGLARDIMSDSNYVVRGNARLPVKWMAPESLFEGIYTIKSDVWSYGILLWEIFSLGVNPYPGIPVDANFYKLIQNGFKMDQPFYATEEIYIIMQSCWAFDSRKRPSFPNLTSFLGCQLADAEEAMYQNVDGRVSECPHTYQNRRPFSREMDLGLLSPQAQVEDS
# [3] = biological target: T2, IRAK4 (Homo sapiens, UniProt Q9NWZ3); test: Reaction Biology NanoBRET target engagement assay in HEK-293 cells, IRAK4; conditions: NanoBRET IRAK4 IC50, HEK-293 cells
# T2 sequence (Q9NWZ3 1-460): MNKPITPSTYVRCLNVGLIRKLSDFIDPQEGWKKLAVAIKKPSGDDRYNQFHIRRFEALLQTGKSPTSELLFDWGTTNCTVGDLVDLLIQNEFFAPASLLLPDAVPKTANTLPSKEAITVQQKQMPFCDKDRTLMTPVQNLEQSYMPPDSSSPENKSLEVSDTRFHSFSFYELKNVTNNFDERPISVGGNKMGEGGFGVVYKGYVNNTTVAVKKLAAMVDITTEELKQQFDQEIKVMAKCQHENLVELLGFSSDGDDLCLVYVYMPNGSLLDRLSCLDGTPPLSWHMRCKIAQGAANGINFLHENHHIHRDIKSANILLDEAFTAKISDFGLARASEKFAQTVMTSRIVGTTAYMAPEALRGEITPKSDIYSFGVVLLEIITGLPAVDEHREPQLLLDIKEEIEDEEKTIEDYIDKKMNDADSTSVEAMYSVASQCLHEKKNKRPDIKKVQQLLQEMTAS
# [4] = tested on: THP1 cells; test: Combination drug screening, Cell Titer Glo, 10 × 10 matrix, THP1 cells; type: cell-based
# [5] = MOLM14(D835Y) cells, combination with Eprenetapopt/APR-246
# [6] = MOLM14(D835Y) cells, combination with Venetoclax (ABT-199)
# [7] = starting conc. 200 nM, with (+)-BAY-1251152 starting conc. 1000 nM
# [8] = starting conc. 200 nM, with Azacitidine (5-Azacytidine) starting conc. 20000 nM
# [9] = starting conc. 200 nM, with Palbociclib starting conc. 10000 nM
# [10] = starting conc. 200 nM, with Prednisolone starting conc. 10000 nM
# [11] = starting conc. 200 nM, with TNO-155 starting conc. 10000 nM
# [12] = starting conc. 200 nM, with Venetoclax (ABT-199) starting conc. 2000 nM
# [13] = starting conc. 200 nM, with Venetoclax (ABT-199) starting conc. 20000 nM
# [14] = starting conc. 20000 nM, with (+)-BAY-1251152 starting conc. 1000 nM
# [15] = starting conc. 20000 nM, with Azacitidine (5-Azacytidine) starting conc. 20000 nM
# [16] = starting conc. 20000 nM, with Palbociclib starting conc. 10000 nM
# [17] = starting conc. 20000 nM, with Prednisolone starting conc. 10000 nM
# [18] = starting conc. 20000 nM, with TNO-155 starting conc. 10000 nM
# [19] = starting conc. 20000 nM, with Venetoclax (ABT-199) starting conc. 2000 nM
# [20] = starting conc. 20000 nM, with Venetoclax (ABT-199) starting conc. 20000 nM
compound,measurement,setting,value
"COc1cc2ncc(-c3cncc(N[C@H]4CNCC[C@@H]4F)n3)n2nc1C1CC1 [Compound 24, 6-(6-cyclopropyl-7-methoxyimidazo[1,2-b]pyridazin-3-yl)-N-((3S,4S)-4-fluoropiperidin-3-yl)pyrazin-2-amine]",Excess HSA Score,"[1]; MOLM14(D835Y) cells, combination with (+)-BAY-1251152",−245.2
same,Excess HSA Score,"[1]; MOLM14(D835Y) cells, combination with AMG-232",468.3
same,Excess HSA Score,"[1]; MOLM14(D835Y) cells, combination with AZD-5363",−1011
same,Excess HSA Score,[1]; [5],143
same,Excess HSA Score,"[1]; MOLM14(D835Y) cells, combination with Ivosidenib",282.2936
same,Excess HSA Score,"[1]; MOLM14(D835Y) cells, combination with Lenalidomide",491.2
same,Excess HSA Score,"[1]; MOLM14(D835Y) cells, combination with Palbociclib",−732.6
same,Excess HSA Score,"[1]; MOLM14(D835Y) cells, combination with Prednisolone",169.8
same,Excess HSA Score,"[1]; MOLM14(D835Y) cells, combination with SNDX-5613",−279.3
same,Excess HSA Score,"[1]; MOLM14(D835Y) cells, combination with TNO-155",−1249
same,Excess HSA Score,"[1]; MOLM14(D835Y) cells, combination with Trametinib",−336.8
same,Excess HSA Score,"[1]; MOLM14(D835Y) cells, combination with Ulixertinib",−260.4
same,Excess HSA Score,[1]; [6],−1890
same,Comments,[1]; [5],Antagonistic
same,Comments,[1]; [6],Synergistic
same,Excess HSA Score,"[1]; MOLM14(D835Y), title compound starting conc. 200 nM + (+)-BAY-1251152 starting conc. 1000 nM",−369.2
same,Excess HSA Score,"[1]; MOLM14(D835Y), title compound starting conc. 200 nM + Azacitidine (5-Azacytidine) starting conc. 20000 nM",−594
same,Excess HSA Score,"[1]; MOLM14(D835Y), title compound starting conc. 200 nM + Palbociclib starting conc. 10000 nM",−490.9
same,Excess HSA Score,"[1]; MOLM14(D835Y), title compound starting conc. 200 nM + Prednisolone starting conc. 10000 nM",12.1697
same,Excess HSA Score,"[1]; MOLM14(D835Y), title compound starting conc. 200 nM + TNO-155 starting conc. 10000 nM",−944.7
same,Excess HSA Score,"[1]; MOLM14(D835Y), title compound starting conc. 200 nM + Venetoclax (ABT-199) starting conc. 2000 nM",−764.8
same,Excess HSA Score,"[1]; MOLM14(D835Y), title compound starting conc. 200 nM + Venetoclax (ABT-199) starting conc. 20000 nM",−71.65
same,Excess HSA Score,"[1]; MOLM14(D835Y), title compound starting conc. 20000 nM + (+)-BAY-1251152 starting conc. 1000 nM",−47.77
same,Excess HSA Score,"[1]; MOLM14(D835Y), title compound starting conc. 20000 nM + Azacitidine (5-Azacytidine) starting conc. 20000 nM",−49.15
same,Excess HSA Score,"[1]; MOLM14(D835Y), title compound starting conc. 20000 nM + Palbociclib starting conc. 10000 nM",182.1
same,Excess HSA Score,"[1]; MOLM14(D835Y), title compound starting conc. 20000 nM + Prednisolone starting conc. 10000 nM",153.7
same,Excess HSA Score,"[1]; MOLM14(D835Y), title compound starting conc. 20000 nM + TNO-155 starting conc. 10000 nM",−94.76
same,Excess HSA Score,"[1]; MOLM14(D835Y), title compound starting conc. 20000 nM + Venetoclax (ABT-199) starting conc. 2000 nM",−501.6
same,Excess HSA Score,"[1]; MOLM14(D835Y), title compound starting conc. 20000 nM + Venetoclax (ABT-199) starting conc. 20000 nM",−122.6
same,Kd,[2],3.8 nM
same,IC50,[3],1 nM
same,Excess HSA Score,"[4]; THP1 cells, 10 × 10, combination with (+)-BAY-1251152",−308.4
same,Excess HSA Score,"[4]; THP1 cells, 10 × 10, combination with AMG-232",144.3
same,Excess HSA Score,"[4]; THP1 cells, 10 × 10, combination with AZD-5363",−379.5012
same,Excess HSA Score,"[4]; THP1 cells, 10 × 10, combination with Eprenetapopt/APR-246",−87.03
same,Excess HSA Score,"[4]; THP1 cells, 10 × 10, combination with Ivosidenib",107
same,Excess HSA Score,"[4]; THP1 cells, 10 × 10, combination with Lenalidomide",−94.52
same,Excess HSA Score,"[4]; THP1 cells, 10 × 10, combination with Palbociclib",−359.2
same,Excess HSA Score,"[4]; THP1 cells, 10 × 10, combination with Prednisolone",35
same,Excess HSA Score,"[4]; THP1 cells, 10 × 10, combination with SNDX-5613",504
same,Excess HSA Score,"[4]; THP1 cells, 10 × 10, combination with TNO-155",−66.32
same,Excess HSA Score,"[4]; THP1 cells, 10 × 10, combination with Trametinib",−416.7
same,Excess HSA Score,"[4]; THP1 cells, 10 × 10, combination with Ulixertinib",−298.8
same,Excess HSA Score,"[4]; THP1 cells, 10 × 10, combination with Venetoclax (ABT-199)",−2203
same,Comments,"[4]; THP1 cells, combination with Prednisolone",Antagonistic
same,Comments,"[4]; THP1 cells, combination with Venetoclax (ABT-199)",Synergistic
same,Comments,[4]; [7],Synergistic at both
same,Excess HSA Score,[4]; [7],−571
same,Comments,[4]; [8],Synergism is more
same,Excess HSA Score,[4]; [8],−34.1
same,Comments,[4]; [9],Synergistic at both
same,Excess HSA Score,[4]; [9],−217.9
same,Comments,[4]; [10],Antagonistic at both
same,Excess HSA Score,[4]; [10],212.2
same,Comments,[4]; [11],Synergistic
same,Excess HSA Score,[4]; [11],−37.04
same,Comments,[4]; [12],Synergistic; Optimal
same,Excess HSA Score,[4]; [12],−888.9
same,Comments,[4]; [13],Synergistic; Optimal
same,Excess HSA Score,[4]; [13],−1905
same,Comments,[4]; [14],Synergistic at both
same,Excess HSA Score,[4]; [14],−641.3
same,Comments,[4]; [15],Synergism is more
same,Excess HSA Score,[4]; [15],−703.5
same,Comments,[4]; [16],Synergistic at both
same,Excess HSA Score,[4]; [16],−318.6
same,Comments,[4]; [17],Antagonistic at both
same,Excess HSA Score,[4]; [17],291
same,Comments,[4]; [18],Antagonistic over
same,Excess HSA Score,[4]; [18],308.6
same,Comments,[4]; [19],Synergistic; Optimal
same,Excess HSA Score,[4]; [19],−108.3
same,Comments,[4]; [20],Synergistic; Optimal
same,Excess HSA Score,[4]; [20],−1677
